Drawing on ChEMBL document CHEMBL3507680, “University of Dundee, Gates Library screen for HepG2 cell viability”, this text covers cytotoxicity for 94 molecules.

Structures are written as SMILES.

The nature of the data set: Human HepG2 cell viability assay in 384 well format. On the set-up: dose 125 nL, time 70.5 hour; concentration not given beside the values. The conditions noted are these: HepG2 cells, read-out: Inhibition. In kind it is toxicity, cell-based.
Consider `CN(Cc1cc(C[C@@H]2C[C@H](N)C2(C)C)no1)c1ccccc1`, for which the cytotoxicity at 70.5 h is -5.24%.
For `O=C1NC[C@H]2CN(Cc3nccs3)CCN12`, the cytotoxicity at 70.5 h is -8.47%.
Take `COCCOC[C@]1(CNC(=O)c2ccc(OC)cc2)C[C@@H](O)[C@@H](O)C1`: the cytotoxicity at 70.5 h is -4.22%.
To `Cn1ccnc1CNC[C@H]1Cn2cc(-c3ccccc3)nc2CO1` belongs -8.01%; to `Cc1ccc(-c2cn3c(n2)CO[C@@H](CNCc2nccn2C)C3)cc1`, -5.86%.
For `Cc1ccc2c(c1)nc1n2[C@@H](CNC(=O)c2cccnc2)COC1`, the cytotoxicity at 70.5 h is -4.19%.
With `Cc1cccc2c1nc1n2[C@@H](CNC(=O)c2ccccn2)COC1`, the cytotoxicity at 70.5 h is -1.91%.
Then `CS(=O)(=O)c1ccc(O[C@H]2COCCN(Cc3ccncc3)C2)cc1`, with -6.23%; and `COCC(=O)N[C@H](C)c1onc(-c2ccc(Cl)cc2)c1C(=O)O`, with -1.96%; and `COCC(=O)N[C@H](C)c1onc(-c2ccc(OC)cc2)c1C(=O)O`, with 10.8%.
Turning to `COc1ccc(-c2noc([C@@H](C)NC(=O)NC(C)(C)C)c2C(=O)O)cc1`, the cytotoxicity at 70.5 h was -10.4%.
To `COCC(=O)N[C@H](C)c1c(-c2ccc(OC)cc2)noc1C(=O)O` belongs -16.4%; to `CC(=O)N[C@H](C)c1c(-c2ccc(Cl)cc2)noc1C(=O)O`, -6.07%; to `Cc1ccc2c(c1)nc1n2[C@@H](CNC(=O)c2cncnc2)COC1`, -2.41%.
To `COCCN(C)C[C@H]1C[C@H](CO)CN(C(=O)c2ccc(=O)n(C)c2)C1` belongs -3.23%.
To `N[C@@H]1c2ccccc2C2(CCN(c3cccc(C(F)(F)F)n3)CC2)[C@H]1O` belongs 5.4%.
Regarding `Cn1ncc2c(NCC3CCS(=O)(=O)C3)nc(-c3ccncc3)nc21` (centres undefined), the cytotoxicity at 70.5 h was 21.3%.
For `CC(=O)Nc1cccc(C(=O)N2CCc3c(nc(N(C)C)[nH]c3=O)C2)c1`, the cytotoxicity at 70.5 h is 16.1%.
To `CCS(=O)(=O)c1ncc(CN(C)Cc2ccccc2Cl)n1CCOC` belongs -2.37%; to `CN(C)C[C@H]1C[C@@H](CO)CN(C(=O)c2cc(=O)[nH]c3cc(F)ccc23)C1`, -2.71%.
Take `CCOc1ccccc1CN(C)C(=O)CN1C(=O)OC[C@@H]1C(C)C`: the cytotoxicity at 70.5 h is 15.5%.
Take `Cc1cccc(C(C(=O)N2CC(c3ccncc3)C2)N(C)C)c1` (centres undefined): the cytotoxicity at 70.5 h is 12.4%.
As to `O=C(O)c1cccc(CC2CCN(c3ncccn3)CC2)c1`, the cytotoxicity at 70.5 h turned out to be 3.25%.
Turning to `CCN(Cc1ccncc1)c1cc(C2CCNCC2)nc(C)n1`, the cytotoxicity at 70.5 h came out at 19.5%.
Then `COCCN(Cc1ccccn1)Cc1sccc1C`, with -10.3%.
Turning to `CCn1cc(CN2CCC(c3ccncc3)CC2)cc1C#N`, the cytotoxicity at 70.5 h was -5.65%.
To `CC(=O)N[C@H]1CCN(c2nc(C)nc3c2c(C)nn3C)C1` belongs -8.71%.
As for `COc1cc(CN2CCN(CC3CC3)[C@@H]3CS(=O)(=O)C[C@@H]32)cc(OC)c1`, the cytotoxicity at 70.5 h was 3.14%.
To `COCCN1CCN(Cc2ccncc2)[C@H]2CS(=O)(=O)C[C@H]21` belongs -6.81%; to `COc1ccc(OC)c(-c2nc(CN(C)Cc3nncn3C)c(C)o2)c1`, -6.73%; to `CSCCC(=O)N1CCC(Oc2cc(C)ccc2F)(C(=O)O)CC1`, -7.4%.
To `O=C(CCc1ccsc1)N1CCC(Cc2ccc(CO)cc2)C1` (centres undefined) belongs -3.39%; to `O=C1N(Cc2ccc(F)c(F)c2)CCCC12CCN(C1CCSCC1)C2` (centres undefined), 9.34%; to `C=Cc1ccc(C(=O)N2CCCC(Nc3ccc(F)cc3)C2)cc1` (centres undefined), 17%.
Regarding `Cc1cc(N2CCN3CCCCC3C2)n2nc(C)c(C)c2n1` (centres undefined), the cytotoxicity at 70.5 h stood at 1.57%.
Then `Cc1cccc(CN2C[C@H]3OC(=O)N(CCCN4CCOCC4)[C@H]3C2)n1`, with -10.1%.
On to `O=S(=O)(NCC1CCOc2ccccc2C1)N1CCOCC1` (centres undefined), for which the cytotoxicity at 70.5 h is -14.9%.
With `COCC1CCCN(C(=O)c2cc(Cn3ccc4ccccc43)[nH]n2)C1` (centres undefined), the cytotoxicity at 70.5 h was -6.02%.
`O=C(c1ccc(F)c(F)c1)N1CCCC(Nc2ccc(F)cc2)C1` (centres undefined): the cytotoxicity at 70.5 h was -5.1%.
To `Cc1occc1C(=O)N1CCC2(CCC(=O)N(CC(N)=O)C2)CC1` belongs -2.77%.
To `CS(=O)(=O)CCC(=O)N1CCC2(CCCN(C3CCOCC3)C2=O)C1` (centres undefined) belongs -9.61%; to `O=C(CSc1ccncc1)N1C[C@H]2CC[C@@H]1CN(Cc1cccnc1)C2`, -2.1%; to `Cn1ncc2c(NCCC34CCCN3CCC4)nc(C3CCCC3)nc21`, 5.19%.
For the molecule `COCCCC1(CO)CCCN(CCS(C)(=O)=O)C1` (centres undefined), the cytotoxicity at 70.5 h is -6%.
To `C[C@@H]1CN(C(=O)c2ccc(C#N)nc2)C[C@@]1(O)C1CC1` belongs 13.9%; to `CCn1ccnc1CN(C)C1CCCN(CCc2ccccc2)C1` (centres undefined), 1.27%.
`O=C(CCc1ccc(=O)[nH]n1)N1CCCC(COc2ccc(F)cc2)C1` (centres undefined): the cytotoxicity at 70.5 h is -1.69%.
To `O=C(c1ccsc1)N1C[C@@H](CN2CCCC2)[C@@H](CO)C1` belongs 13.3%; to `CN(C)C(=O)c1ccc2c(c1)N(C)C(CC(=O)NCCC(C)(C)C)CO2` (centres undefined), -5.81%; to `O=S(=O)(N1CCCC1)N1CCCCC1CCc1ccccc1` (centres undefined), -5.36%.
Turning to `CN(Cc1csc(-c2cccs2)n1)C(=O)CCn1ccccc1=O`, the cytotoxicity at 70.5 h was -17.2%.
For `Cc1csc(CCCNC(=O)[C@H]2CNC[C@@H](C(=O)N3CCCC3)C2)n1`, the cytotoxicity at 70.5 h was -9.44%.
On to `O=C(CSc1ncccn1)N1C[C@H]2CC[C@@H]1CN(Cc1ccncc1)C2`, for which the cytotoxicity at 70.5 h is -0.441%.
To `CC(=O)c1cc(CC(=O)NCc2ccc(CN(C)C)cc2)cs1` belongs -7.31%; to `COc1cccc(N2CCN(C(=O)[C@H](O)C3CCCCC3)CC2=O)c1`, -8.15%.
Then `Cc1cc(-c2nn(C)c(Cl)c2CN2CCOCC2CC(=O)O)no1` (centres undefined), with -7.35%.
Then `COc1ccc(OCc2nc(C(=O)N3CC(O)C3)co2)cc1`, with -8.01%; and `COc1ccccc1OCc1cc(C(=O)N2CC=CC2C(C)C)n[nH]1` (centres undefined), with -6.89%.
With `O=C(c1coc(COc2cccc(F)c2)n1)N1CC[C@H](O)[C@@H](O)C1`, the cytotoxicity at 70.5 h is -9.89%.
To `O=C(NCCCc1ccncc1)C1CCCN(Cc2ccco2)C1` (centres undefined) belongs 9.58%.
Then `CCCc1nc(C)cc(N2CCC3(CCC(=O)N(CC4CC4)C3)CC2)n1`, with -11.1%; and `O=C(c1ccc(C2CCCO2)s1)N1CCS(=O)(=O)CC1` (centres undefined), with -8.51%.
Then `O=C(CCC1CC1)N1C[C@@H](CN2CCCC2)[C@@H](CO)C1`, with -13.2%; and `Cc1noc(C)c1C1CCCN1C(=O)CN1CC2(CCNCC2)OC1=O` (centres undefined), with 19.7%.
Regarding `Cn1c(Cn2ccnc2)nnc1C1CCN(Cc2cccnc2N)CC1`, the cytotoxicity at 70.5 h is -9.06%.
In the case of `CCn1cc(CNC2CC(=O)N(CCc3cccc(Cl)c3)C2)cn1` (centres undefined), the cytotoxicity at 70.5 h was -3.19%.
To `Nc1nccc(N2CCCC(CO)(CCOc3ccccc3)C2)n1` (centres undefined) belongs 8.14%; to `Cc1ccc(OC2(C(=O)O)CCN(C(=O)c3nc(C)oc3C)CC2)cn1`, -7.82%; to `COC1CCCN(C(=O)Nc2nc(C)n(C)n2)C1` (centres undefined), -8.2%.
Then `O=C(c1ccc[nH]1)N1C[C@H]2CC[C@@H]1CN(C1Cc3ccccc3C1)C2`, with -9.66%.
As to `CC(C)N1CCC(N2CCN(C3CCC3)CC2CCO)CC1` (centres undefined), the cytotoxicity at 70.5 h was -9.59%.
As for `COCCNC(=O)c1cc(S(=O)(=O)N2CCCCC2)cs1`, the cytotoxicity at 70.5 h is -13.8%.
With `CCS(=O)(=O)N(C)c1ccc(C(=O)N2CCCC(C)C2)cc1` (centres undefined), the cytotoxicity at 70.5 h is -7.21%.
Take `CC(C)C(=O)N1CCN(C(=O)c2cscn2)[C@H]2CS(=O)(=O)C[C@H]21`: the cytotoxicity at 70.5 h is -2.25%.
Then `Cc1ccccc1CS(=O)(=O)NCCCN1CCCCC1`, with -4.67%; and `O=C(c1ccccc1-c1ccccc1)N1CCOC2(CNCCOC2)C1` (centres undefined), with -11.1%; and `COCCNS(=O)(=O)c1ccc2c(c1)CCN(C(=O)c1cncn1C)C2`, with -5.18%.
Then `COc1ccc(Cc2nnc(SC)o2)cc1OC`, with -2.03%; and `NC(=O)C1CCN(C(=O)c2cccc(CN3CCOCC3)c2)CC1`, with 8.77%; and `C[C@H](O)CNC(=O)c1cnc(-c2ccccc2)nc1O`, with -4.5%.
For `O=C(O)[C@]12CCCN(Cc3ccncc3)[C@@H]1CCN(c1cnccn1)C2`, the cytotoxicity at 70.5 h stood at 8.46%.
Then `NC(=O)C1CCN(c2nc3nccc(-c4ccccc4)c3c(=O)[nH]2)CC1`, with -13.2%; and `CN1CCC(Oc2ccc(NC(=O)c3ccccc3Br)cc2)CC1`, with -7.15%; and `CN(C)C(=O)Cc1ccc(NC(=O)NC2CCCCC2)cc1`, with -10.4%.
Regarding `Cc1nn(-c2ccccc2)c2c1C(c1ccc(C(=O)O)cc1)CC(=O)N2` (centres undefined), the cytotoxicity at 70.5 h was -3.05%.
To `CCC(NC(=O)C1CCN(S(C)(=O)=O)CC1)c1ccc(OC)c(C)c1` (centres undefined) belongs -9.2%; to `Cc1cc(=O)n(CC(=O)Nc2ccc(C(N)=O)cc2)nc1C`, -4.34%.
Then `Cc1nc(N2CCN(C(=O)C(C)(C)C)CC2)cc(-n2cnc(C)c2C)n1`, with 13%.
To `N#Cc1ccc(C2CC(=O)Nc3c2cnn3C2CCCC2)cc1` (centres undefined) belongs -2.74%; to `CCNC(=O)[C@@H]1CCCN1[C@@H](C(=O)NC)c1ccccc1OC`, -8.29%; to `CNC(=O)[C@@H](c1ccccc1OC)N1CCC[C@H]1C(=O)N1CC[C@@H](O)C1`, -3.98%.
Regarding `COCCOC[C@]1(CNCc2ccc(F)cc2)C[C@@H](O)[C@@H](O)C1`, the cytotoxicity at 70.5 h is 11.8%.
Then `C[C@@H](NCc1cccc(Cl)c1)c1onc(-c2ccc(F)cc2)c1C(=O)O`, with -2.58%.
Then `CC(C)CC(=O)N[C@H](C)c1c(-c2ccc(Cl)cc2)noc1C(=O)O`, with -7.33%.
